We go through 31 compounds from patent US6291640A, “Peptidomimetic inhibitors of the human cytomegalovirus protease” (Boehringer Ingelheim Ltd., priority 1998, dated 2001).

Molecules are shown by their SMILES. Read-outs that look alike come from different tables or passages of the source. Starred links: 1 amine or outer side, 2 acyl side, 3 side chain; linkers in the order of their positions; H or OH if unused. Non-standard residues stand in square brackets, D forms with d. Residues, ends and D or L forms follow the SMILES beside them. ξ: configuration not given here. *: point of attachment. ξ3Amino2oxobutanoyl = CC(N[*:1])C(=O)C(=O)[*:2]; NHBn = c1ccc(CN*)cc1; ξNva = CCCC(N)C(=O)O; CF3 = FC(F)(F)* Some results are limits rather than exact numbers.

For experiment [1], the target named is T1, HCMV No protease (Human cytomegalovirus, UniProt P16753).
T1 construct: at a position located near the center of the precursor (R-site) to excise the catalytic domain (No)
Briefly: biochemical. The procedure: HCMV No protease assay: HCMV No protease was assayed with an internally quenched fluorogenic substrate based on the maturation cleavage site (Abz-[…](3-NO2)R-OH, kcat /KM =260 M^-1 s^-1) . […] A protocol adaptable to a 96-well plate format was designed for the determination of IC50 values of inhibitors. […] After this period, enzymatic hydrolysis was initiated by addition of the fluorogenic substrate and the reaction was performed for 2 hr at 30° C. […] No quenching was required before fluorescence measurement since the total scanning time by the plate reader accessory was brief relative to the duration of the reaction. The incubation buffer (essentially similar to the pre-incubation buffer) contained 50 mM Tris/HCl pH 8, 0.5M Na2 SO4, 50 mM NaCl, 0.1 mM EDTA, 1 mM TCEP, 3% v/v DMSO and 0.05% w/v Casein. The final concentrations of HCMV N, protease (expressed in terms of total monomer concentration) and substrate were 100 nM and 5 μM respectively. IC50 values were obtained through fitting of the inhibition curve to a competitive inhibition model using SAS NLIN procedure. The mode of inhibition was determined by measurements of the initial rates (in cuvettes) at various substrate (Abz-Tbg-Tbg-Asn(Me)2 -Ala-SSRLY(3-NO2)R-OH) and inhibitor concentrations using the same conditions as above.

Experiment [2] deals with T2, porcine pancreatic elastase (PPE) (Sus scrofa, UniProt P00772).
T2 construct: porcine pancreas elastase #1027891 lot 83260521-23; purchased Boehringer Mannheim #1027891
Put plainly: Specificity assay, porcine pancreatic elastase. It counts as biochemical. The procedure:
The specificity of the compounds was determined against a variety of serine proteases (Human leukocyte and porcine pancreatic elastases (HLE & PPE), bovine pancreas α-chymotrypsin) and one cysteine protease (Human liver cathepsin B). In all cases a 96-well plate format protocol using a calorimetric p-nitroanilide (pNA) substrate specific for each enzyme was used. Each assay included a 1 hr pre-incubation enzyme-inhibitor at 30° C. followed by addition of substrate and hydrolysis to ≈30% conversion as measured by scanning on a UV Thermomax microplate reader. Substrate concentrations were kept as low as possible compared to KM to reduce substrate competition. […] The final conditions for each assay were as followed: 50 mM Tris/HCl pH 8, 0.5 M Na2 SO4, 50 mM NaCl, 0.1 mM EDTA, 3% DMSO, 0.01% Tween-20 with [100 μM Succ-AAPF-pNA and 250 pM α-chymotrypsin], [133 μM Succ-AAA-pNA and 8 nM porcine elastase], or [133 μM Succ-AAV-pNA and 8 nM leukocyte elastase]. 100 mM NaH2 PO4 pH 6, 0.1 mM EDTA, 3% DMSO, 1 mM TCEP, 0.01% Tween-20, 30 μM Z-FR-pNA and 5 nM cathepsin B (the stock enzyme was activated in buffer containing 20 mM TCEP before use).

[3] abbreviates: inhibitor pre-incubated 5 hr at 30° C. with enzyme, fluorogenic substrate, read-out: IC50.
Setting [4] is: text of b731, read-out: IC50 value / potency.

T1 sequence (P16753 1-256): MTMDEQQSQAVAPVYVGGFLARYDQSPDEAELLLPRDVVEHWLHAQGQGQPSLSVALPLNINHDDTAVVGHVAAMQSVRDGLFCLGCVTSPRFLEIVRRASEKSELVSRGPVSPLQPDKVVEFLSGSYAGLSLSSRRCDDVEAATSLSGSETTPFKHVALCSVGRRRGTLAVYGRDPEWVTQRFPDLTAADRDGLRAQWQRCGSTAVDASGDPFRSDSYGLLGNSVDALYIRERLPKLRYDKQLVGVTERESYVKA
T2 sequence (P00772 27-266): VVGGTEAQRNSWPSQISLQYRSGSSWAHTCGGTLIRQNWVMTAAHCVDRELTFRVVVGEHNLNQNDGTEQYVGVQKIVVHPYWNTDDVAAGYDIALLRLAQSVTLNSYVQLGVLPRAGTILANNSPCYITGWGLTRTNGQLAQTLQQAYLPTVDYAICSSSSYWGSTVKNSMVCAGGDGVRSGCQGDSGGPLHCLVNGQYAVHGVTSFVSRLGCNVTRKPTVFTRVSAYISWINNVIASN

Regarding `CC(NC(=O)[C@@H](CC(=O)C(NC(=O)CC(C)(C)C)C(C)(C)C)CC(=O)N(C)C)C(=O)C(F)(F)C(F)(F)F` (mixture of isomers) [Compound 312, N^4,N^4 -Dimethyl-N^1-[1-(R/ S)-methyl-2-oxo-3,3,4,4,4-pentafluorobutyl]-(2S)-2-{3-[(3,3-dimethyl-1-oxobutyl)-amino]-4,4-dimethyl-2-oxopentyl}-butanediamide], the IC50 in experiment [1] (setting [3]) turned out to be 5.8 µM. Take `CCCC(NC(=O)[C@H](CC(N)=O)NC(=O)[C@@H](NC(=O)[C@@H](NC(C)=O)C(C)C)C(C)C)C(=O)C(F)(F)F` (stereo partly shown) [Compound 45] (Ac-VVN[ξNva]-CF3): the IC50 in experiment [1] (setting [3]) is more than 300 µM.

With `CC(NC(=O)[C@H](CC(=O)N(C)C)NC(=O)[C@@H](NC(=O)CC(C)(C)C)C(C)(C)C)C(=O)c1nc2ccccc2o1` (stereo partly drawn) [Compound 77, N1-[2-(1,3-benzoxazol-2-yl)-1-methyl-2-oxoethyl]-N4,N4-dimethyl-(2S)-2-{[(1S)-2,2-dimethyl-1-(neopentylcarboxamido)propyl]carboxamido}butanediamide], the “potency against PPE relative to HCMV protease” value in experiment [2] is listed as “seven fold more potent against PPE than against HCMV protease”. Consider `CC(NC(=O)[C@H](CC(=O)N(C)C)NC(=O)[C@@H](NC(=O)CC(C)(C)C)C(C)(C)C)P(=O)(Oc1ccccc1)Oc1ccccc1` (stereo partly drawn) [Compound 79, Diphenyl N4 ,N4-dimethyl-N1-(1-aminoethylphosphinate)-(2S)-2-{[(1S)-2,2-dirmethyl-1-(neopentylcarboxamido)propyl]carboxamido}butanediamide], for which, in experiment [1], the IC50 stood at 0.66 ± 0.06 µM.

In the case of `CC(NC(=O)[C@H](CC(=O)N(C)C)NC(=O)[C@@H](NC(=O)CC(C)(C)C)C(C)(C)C)C(=O)c1nc2ccccc2s1` (stereo partly drawn) [Compound 80, N1-[2-(1,3-benzothiazol-2-yl)-1-methyl-2-oxoethyl]-N4,N4-dimethyl-(2S)-2-{[(1S)-2,2-di-methyl-1-(neopentylcarboxamido)propyl]carboxamido}butanediamide], the IC50 in experiment [2] (1 hr pre-incubation at 30° C., Succ-AAA-pNA, read-out: IC50 against PPE) is 9 µM. `Cc1ccc2nc(C(=O)C(C)NC(=O)[C@H](CC(=O)N(C)C)NC(=O)[C@@H](NC(=O)CC(C)(C)C)C(C)(C)C)oc2c1` (stereo partly drawn) [Compound 82, N4,N4-dimethyl-N1-[1-methyl-2-(6-methyl-1,3-benzoxazol-2-yl)-2-oxoethyl]-(2S)-2-{[(1S)-2,2-dimethyl-1-(neopentylcarboxamido)propyl]carboxamido}butanediamide]: the IC50 in experiment [1] (setting [3]) amounted to 0.6 ± 0.1 µM. For `CC[C@@H](NC(=O)C(=O)C(C)NC(=O)[C@H](CC(=O)N(C)C)NC(=O)[C@@H](NC(=O)[C@@H](NC(=O)CCCCCNC(=O)OC(C)(C)C)C(C)(C)C)C(C)(C)C)c1ccccc1` (stereo partly shown) [Compound 96], the results for the IC50 in experiment [1] (setting [3]) and in experiment [1] (setting [4]) were 0.057 µM and 0.075 µM, respectively. As to `CC[C@@H](NC(=O)C(=O)C(C)NC(=O)[C@H](CC(=O)N(C)C)NC(=O)[C@@H](NC(=O)[C@@H](NC(=O)CCCCCN)C(C)(C)C)C(C)(C)C)c1ccccc1` (stereo partly shown) [Compound 97], the IC50 in experiment [1] (setting [3]) was 0.073 µM; in experiment [1] (setting [4]), less than 0.04 µM. The “improvement of potency (factor) on removal of the Boc group” value in experiment [1] (relative to compound 96) is given as 2. With `CC(NC(=O)[C@H](CC(=O)N1CCCC1)NC(=O)[C@@H](NC(=O)CC(C)(C)C)C(C)(C)C)C(=O)C(=O)NCc1ccc(I)cc1` (stereo partly shown) [Compound 98], the IC50 in experiment [1] (setting [3]) is 0.34 µM. `CC(=O)N[C@@H](CO)C(=O)N[C@@H](Cc1ccc(O)cc1)C(=O)N[C@H](C(=O)N[C@@H](CCCCN)C(=O)NC(C)C(=O)C(=O)NCc1ccccc1)C(C)C` (stereo partly drawn) [Compound 218, Ac-Ser-Tyr-Val-Lys-Ala(d,l)-C(O)-NH-CH2 -Ph] (Ac-SYVK[ξ3Amino2oxobutanoyl]-NHBn) yielded an IC50 in experiment [1] (IC50 (μM)) of 9.4 µM.

Regarding `C[C@H](NC(=O)[C@H](CC(=O)N1CCCC1)NC(=O)[C@@H](NC(=O)CC(C)(C)C)C(C)(C)C)C(=O)c1nc2ccccc2o1` [Compound 304], the IC50 in experiment [1] (setting [3]) is 0.5 µM. `CC(NC(=O)[C@H](CC(=O)N1CCCC1)NC(=O)[C@@H](NC(=O)CC(C)(C)C)C(C)(C)C)C(=O)C(=O)NCCOCc1ccccc1` (stereo partly shown) [Compound 305]: the IC50 in experiment [1] (setting [3]) amounted to 0.3 µM. Turning to `CC(NC(=O)[C@H](CC(=O)NC(C)(C)C)NC(=O)[C@@H](NC(=O)CC(C)(C)C)C(C)(C)C)C(=O)C(F)(F)C(F)(F)F` (stereo partly shown) [Compound 306], the IC50 in experiment [1] (setting [3]) is 0.5 µM. The same measure, in the same setting: as for `CC(NC(=O)[C@H](CCC(=O)N(C)C)NC(=O)[C@@H](NC(=O)CC(C)(C)C)C(C)(C)C)C(=O)C(F)(F)C(F)(F)F` (stereo partly shown) [Compound 307], the figure is 2 µM; as for `CC(NC(=O)[C@H](CC(=O)N1CCOCC1)NC(=O)[C@@H](NC(=O)CC(C)(C)C)C(C)(C)C)C(=O)C(F)(F)C(F)(F)F` (stereo partly shown) [Compound 308], 0.3 µM. The same measure, in the same setting: for `CC[C@@H](NC(=O)C(=O)C(C)NC(=O)[C@H](CC(=O)N(C)CCc1ccccn1)NC(=O)[C@@H](NC(=O)CC(C)(C)C)C(C)(C)C)c1ccccc1` (stereo partly shown) [Compound 309] the value was 0.12 µM. The same measure, in the same setting: for `CC[C@@H](NC(=O)C(=O)C(C)NC(=O)[C@H](CS(N)(=O)=O)NC(=O)[C@@H](NC(=O)CC(C)(C)C)C(C)(C)C)c1ccccc1` (stereo partly shown) [Compound 310] the value was 0.97 µM. As for `CC(NC(=O)[C@@H](CC(=O)[C@@H](NC(=O)CC(C)(C)C)C(C)(C)C)CC(=O)C(C)(C)C)C(=O)C(F)(F)F` (stereo partly shown) [Compound 311], the IC50 in experiment [1] (setting [3]) amounted to 6.8 µM. As to `C=CCOC(=O)OCCNC(=O)C(=O)C(C)NC(=O)[C@H](CC(=O)N(C)C)NC(=O)[C@@H](NC(=O)CC(C)(C)C)C(C)(C)C` (stereo partly shown) [Compound 401], in experiment [1] (setting [3]), the IC50 came out at 0.59 µM. For `CC(NC(=O)[C@H](CC(=O)N(C)C)NC(=O)[C@@H](NC(=O)[C@@H](NC(=O)OC(C)(C)C)C(C)C)C(C)C)C(=O)C(=O)NCC(C)(C)C` (stereo partly shown) [Compound 402], the IC50 in experiment [1] (setting [3]) was determined as 4.3 µM. `CC(NC(=O)[C@H](CC(=O)N(C)C)NC(=O)[C@@H](NC(=O)[C@@H](N)C(C)C)C(C)C)C(=O)C(=O)NCc1ccc(C(F)(F)F)cc1` (stereo partly shown) [Compound 404]: the IC50 in experiment [1] (setting [3]) was found to be 1.7 µM. Regarding `CC(NC(=O)[C@H](CC(=O)N(C)C)NC(=O)[C@@H](NC(=O)CC(C)(C)C)C(C)(C)C)C(=O)C(=O)NCc1ccc(C(=O)N2CCOCC2)cc1` (stereo partly shown) [Compound 405], the IC50 in experiment [1] (setting [3]) is 0.5 µM.

For `CCCCC[C@@H](C)NC(=O)C(=O)C(C)NC(=O)[C@H](CC(=O)N(C)C)NC(=O)[C@@H](NC(=O)CC(C)(C)C)C(C)(C)C` (stereo partly shown) [Compound 406], the IC50 in experiment [1] (setting [3]) was determined as 0.8 µM.

In the case of `CC(NC(=O)[C@H](CC(=O)N(C)C)NC(=O)[C@@H](NC(=O)CC(C)(C)C)C(C)(C)C)C(=O)C(=O)N[C@H](C)c1cccc2ccccc12` (stereo partly shown) [Compound 407], in experiment [1] (setting [3]), the IC50 worked out at 0.2 µM. For `CC(NC(=O)[C@H](CC(=O)N(C)C)NC(=O)[C@@H](NC(=O)CC(C)(C)C)C(C)(C)C)C(=O)C(=O)NC[C@@H](C)c1ccccc1` (stereo partly shown) [Compound 408], the IC50 in experiment [1] (setting [3]) came to 0.2 µM. Regarding `Cc1ccc(NC(=O)C(=O)C(C)NC(=O)[C@H](CC(=O)N(C)C)NC(=O)[C@@H](NC(=O)[C@@H](NC(=O)OC(C)(C)C)C(C)C)C(C)C)cc1` (stereo partly shown) [Compound 409], in experiment [1] (setting [3]), the IC50 was determined as 1.4 µM. Still for that read-out and setting: as for `CC(NC(=O)[C@H](CC(=O)N(C)C)NC(=O)[C@@H](NC(=O)[C@@H](NC(=O)OC(C)(C)C)C(C)C)C(C)C)C(=O)C(=O)Nc1ccccc1` (stereo partly shown) [Compound 410], the figure is 1.5 µM; as for `CC(NC(=O)[C@H](CC(=O)N(C)C)NC(=O)[C@@H](NC(=O)[C@@H](NC(=O)OC(C)(C)C)C(C)C)C(C)C)C(=O)C(=O)NC1CCCCC1` (stereo partly shown) [Compound 411], 1.8 µM. For `CC(NC(=O)[C@H](CC(=O)N(C)C)NC(=O)[C@@H](NC(=O)[C@@H](NC(=O)OC(C)(C)C)C(C)C)C(C)C)C(=O)C(=O)NCCc1ccccc1` (stereo partly shown) [Compound 412], the IC50 in experiment [1] (setting [3]) amounted to 0.85 µM. For the compound `CC(NC(=O)[C@H](CC(=O)N(C)C)NC(=O)[C@@H](NC(=O)[C@@H](NC(=O)OC(C)(C)C)C(C)C)C(C)C)C(=O)C(=O)NCC1CCCCC1` (stereo partly shown) [Compound 413], the IC50 in experiment [1] (setting [3]) is 4.4 µM.

`CC(NC(=O)[C@H](CC(=O)N(C)C)NC(=O)[C@@H](NC(=O)[C@@H](NC(=O)OC(C)(C)C)C(C)C)C(C)C)C(=O)C(=O)Nc1cccc(C(N)=O)c1` (stereo partly shown) [Compound 414]: the IC50 in experiment [1] (setting [3]) is 1.6 µM.
